{"source": "paper PMC5770468", "about": "“Cardiac glycoside/aglycones inhibit HIV-1 gene expression by a mechanism requiring MEK1/2-ERK1/2 signaling” (Scientific Reports, 2018)", "key": {"HIV-infected PBMCs": {"test_system": "HIV-infected PBMCs", "assay": "Ex vivo therapeutic index (CC50/IC50) in HIV-infected PBMCs", "type": "cell-based, human", "conditions": "CC50/IC50, day 14, HIV-infected PBMCs", "text": "Without median toxic dose (TD50) and half-maximal effective concentration (EC50) data available to calculate TIs (in vivo) from HIV patients treated with CSs, we determined the following TIs for each cell type treated with a CS (summarized in Supplementary Table S1): in vitro TIs from HeLa rtTA-HIV-ΔMls cells using CC20/IC50 (instead of CC50/IC50), in vitro TIs from 24ST1NLESG cells using CC50/IC50, and ex vivo TIs from HIV-infected PBMCs using CC50/IC50 (at day 14 of culture approximated from available cell viability trends for CC50s of Supplementary Fig. S13 and inferred near maximal IC50s).\nSupplementary Figure S13. Estimation of the approximate ex vivo therapeutic indices of several\nCSs. Ex vivo TIs were calculated from CC50/IC50 from day 14 of culture of HIV-infected patient PBMCs treated with CSs. CC50s were estimated/extrapolated from data points by their trends (dashed arrows) from XTT assays of cell viability (gray circles) and their inferred near maximal IC50s estimated from results on HIV-1 p24CA (Gag) production (black circles) from Figures 2f-h and some data points published on digoxin [Wong et al. (2013). PLoS Pathog 9(3):e1003241]. […]"}, "SRp20/SRSF3": {"test_system": "SRp20/SRSF3", "assay": "Immunoblot of SRp20 in HeLa rtTA-HIV-ΔMls cells", "type": "cell-based, human", "conditions": "3 d with ~IC50s of CSs", "text": "Figure 4 CSs suppress HIV-1 gene expression by altering viral RNA processing. […] (a,b) CSs induce oversplicing of HIV-1 RNAs (n ≥ 3, mean, s.e.m.). (a) Diagram of the primer positions (arrow heads) used for qRT-PCR. (b) Graph of the relative amount of US (black), SS (white), and MS (gray) HIV-1 RNAs in cells treated with various CSs. (c) Nuclear export of HIV-1 US RNAs in cells is altered by CSs (representative n ≥ 4). HIV-1 US RNAs were localized by FISH after treating HeLa rtTA-HIV(Gag-GFP) cells as described above but with ~IC90s of CSs. Nuclei were stained by DAPI and images captured at 630 × magnification. […] SRp20, Tra2β, and tubulin were analyzed by immunoblot of HeLa rtTA-HIV-ΔMls cells treated as described above except cells of this representative blot were treated 3 d with ~IC50s of CSs. […]\nTo monitor HIV-1 gene expression or replication, Gag release into cell culture supernatants were assayed by ELISA using a p24^CA antigen capture assay kit (AIDS & Cancer Virus Program, NCI-Frederick, Frederick, MD USA). […] For analysis of HIV-1 and SR protein expression (and phosphorylation states with calf intestinal alkaline phosphatase treatments), cells were lysed and analyzed by western blot as previously outlined. […] Activation of MAPKs was determined by western blot quantitation and calculation of phospho/total protein levels. […]"}}}
{"smiles": "C[C@]12CC[C@H](O)C[C@H]1CC[C@@H]1[C@@H]2CC[C@]2(C)[C@@H](C3=CC(=O)OC3)CC[C@]12O", "note": "[Digitoxigenin]", "values": [{"measurement": "better approximate ex vivo TI than FDA-approved counterparts", "setting": "HIV-infected PBMCs", "value": "≥ 1.5", "unit": "fold"}, {"measurement": "mobility of SRp20", "setting": "SRp20/SRSF3", "value": "increased the mobility"}]}
